Here are results for 5 molecules from patent US6495591B1, “Fungal efflux pump inhibitors” (Essential Therapeutics, Inc., priority 1997, dated 2002).

Common to all, as to assay type: cell-based
Assay [1] deals with YEM 53 C. krusei. As to the kind of experiment: FEPI MIC with/without 1/8 fluconazole MIC at 24 hrs (Table 11).
The test system of assay [2] is Aspergillus fumigatus. Nature of the assay: FEPI MICs in combination with 1/4 the azole's MIC (Table 12). To be noted: for FEPI MIC with itraconazole, 60% Inh / FEPI MIC with itraconazole, 80% Inh: itraconazole 0.063 μg/ml (1/4 MIC); for FEPI MIC with ketoconazole, 60% Inh / FEPI MIC with ketoconazole, 80% Inh: ketoconazole 4 μg/ml (1/4 MIC); for FEPI MIC (alone): no azole, 35° C., CM Broth. Details: FEPI MIC (alone): unit not given here. As for the experimental part: The combinations were tested against a series of Candida strain with known expression of efflux pumps or with complete deletion of all known pumps and Aspergillus fumigatus. Results are reported as minimum inhibitory concentration (MIC) of […] in the presence or absence of […]. A total of 27 distinct milbemycins were studied.

Assay [3] concerns YEM 15 C. albicans, CDR1CDR2 up. Nature of the assay: microbe, parasite or virus in culture. To be noted: YEM 15, 24 hrs, 80% inhibition; for MIC of compound in the presence of fluconazole (+): 1/8 × MIC of fluconazole.
The test system of assay [4] is YEM 13 C. albicans BEN up. As to the kind of experiment: microbe, parasite or virus in culture. Particulars: YEM 13, 24 hrs, 80% inhibition; for MIC of compound in the presence of fluconazole (+): 1/8 × MIC of fluconazole.
The test system of assay [5] is YEM 27 C. albicans ΔCDR1ΔCDR2 ΔBENΔFLU1. As to the kind of experiment: microbe, parasite or virus in culture. Particulars: YEM 27, 24 hrs, 80% inhibition; for MIC of compound in the presence of fluconazole (+): 1/8 × MIC of fluconazole.
Assay [6] concerns YEM 17 C. glabrata, CgCDR up. To be noted: 24 hrs, 80% inhibition; for MIC of compound in the presence of fluconazole (+): 1/8 × MIC of fluconazole.
Assay [7] deals with YEM 24 C. albicans ΔCDR1, ΔCDR2. Nature of the assay: microbe, parasite or virus in culture. To be noted: YEM 24, 24 hrs, 80% inhibition; for MIC of compound in the presence of fluconazole (+): 1/8 × MIC of fluconazole.
For assay [8], the system named is YEM 51 C. glabrata wt. Nature of the assay: FEPI MIC with/without 1/8 fluconazole MIC at 24 hrs (Table 11).
For assay [9], the system named is YEM 30 C. albicans wt. Described as above.
The mark [10] stands for this setting: YEM 53, 1/8 × MIC of fluconazole, 24 hrs, 80% inhibition.
Setting [11] is: fluconazole 32 μg/ml (1/4 MIC), 60% inhibition.
Setting [12] is: fluconazole 32 μg/ml (1/4 MIC), 80% inhibition.
Where [13] appears, read: YEM 51, 1/8 × MIC of fluconazole, 24 hrs, 80% inhibition.
Where [14] appears, read: YEM 30, 1/8 × MIC of fluconazole, 24 hrs, 80% inhibition.

Where two headings read alike, the source gives them in different places.

As to “8-Methyl-5,6-dihydroxymilbemycin β1 [Compound 19]”, the MIC of compound in the presence of fluconazole (+) in assay [1] (setting [10]) is 8 µg/mL; in assay [3], “≦0.03”; in [4], 16 µg/mL; in assay [5] it was 16 µg/mL; in [6], 64 µg/mL; in assay [7], 32 µg/mL. The MIC of compound in the presence of fluconazole (+) was above 64 µg/mL in assay [8] (setting [13]) and “≦0.03” in assay [9] (setting [14]). Also, the MIC of compound in the absence of fluconazole (−) was above 64 µg/mL in assay [1] (YEM 53, 24 hrs, 80% inhibition); above 64 µg/mL in [3]; above 64 µg/mL in [4]; above 64 µg/mL in assay [5]; above 64 µg/mL in assay [6]; above 64 µg/mL in assay [7]. Also, the MIC of compound in the absence of fluconazole (−) is above 64 µg/mL in assay [8] (YEM 51, 24 hrs, 80% inhibition) and 8 µg/mL in assay [9] (YEM 30, 24 hrs, 80% inhibition). Further, in assay [2] (setting [11]), the “FEPI MIC with fluconazole, 60% Inh” value is 32. The “FEPI MIC with fluconazole, 80% Inh” value in [2] (setting [12]) came out at 64. Also, the “FEPI MIC with itraconazole, 60% Inh” value in assay [2] (60% inhibition) is recorded as 8. In [2] (80% inhibition), the “FEPI MIC with itraconazole, 80% Inh” value is recorded as above 64. In addition, the “FEPI MIC with ketoconazole, 60% Inh” value in assay [2] (60% inhibition) is “≦0.063”. Further, the “FEPI MIC with ketoconazole, 80% Inh” value in assay [2] (80% inhibition) is listed as “≦0.063”. The “FEPI MIC (alone)” value in assay [2] (80% inhibition) is 64.
For the molecule “8-Methyl-8-deoxymilbemycin β1 [Compound 24]”, the MIC of compound in the presence of fluconazole (+) in assay [1] (setting [10]) was above 64 µg/mL; in assay [3] it was “≦0.03”; in assay [4], 64 µg/mL; in assay [5] it was 64 µg/mL; in assay [6], 1 µg/mL; in [7] it was above 64 µg/mL. For the same molecule, the MIC of compound in the presence of fluconazole (+) in assay [8] (setting [13]) was 0.125 µg/mL; in assay [9] (setting [14]), “≦0.03”. The MIC of compound in the absence of fluconazole (−) was above 64 µg/mL in assay [1] (YEM 53, 24 hrs, 80% inhibition); above 64 µg/mL in assay [3]; above 64 µg/mL in assay [4]; above 64 µg/mL in assay [5]; above 64 µg/mL in [6]; above 64 µg/mL in assay [7]. Besides, the MIC of compound in the absence of fluconazole (−) in [8] (YEM 51, 24 hrs, 80% inhibition) is above 64 µg/mL; in [9] (YEM 30, 24 hrs, 80% inhibition), above 64 µg/mL. The “FEPI MIC with fluconazole, 60% Inh” value in assay [2] (setting [11]) was determined as 64. The “FEPI MIC with fluconazole, 80% Inh” value in assay [2] (setting [12]) worked out at 64. In addition, the “FEPI MIC with itraconazole, 60% Inh” value in assay [2] (60% inhibition) is 64. Also, the “FEPI MIC with itraconazole, 80% Inh” value in assay [2] (80% inhibition) was 64. Further, the “FEPI MIC with ketoconazole, 60% Inh” value in assay [2] (60% inhibition) is given as “≦0.063”. Further, the “FEPI MIC with ketoconazole, 80% Inh” value in assay [2] (80% inhibition) was “≦0.063”. Further, in assay [2] (80% inhibition), the “FEPI MIC (alone)” value stood at 64.
As for `CC[C@H](C)[C@H]1O[C@]2(CC[C@@H]1C)C[C@@H]1C[C@@H](C/C=C(\C)[C@@H](O[C@H]3C[C@H](OC)[C@@H](O[C@H]4C[C@H](OC)[C@@H](O)[C@H](C)O4)[C@H](C)O3)[C@@H](C)/C=C/C=C3\CO[C@@H]4[C@H](O)C(C)=C[C@@H](C(=O)O1)[C@]34O)O2` [Compound 1, Ivermectin B1a], the MIC of compound in the presence of fluconazole (+) is 8 µg/mL in assay [1]; above 64 µg/mL in assay [3]; above 64 µg/mL in assay [4]; 64 µg/mL in assay [5]; above 64 µg/mL in [6]; above 64 µg/mL in assay [7]. Also, the figures for the MIC of compound in the presence of fluconazole (+) in [8] and in assay [9] were 64 µg/mL and “≦0.03”, respectively. Moreover, the MIC of compound in the absence of fluconazole (−) was above 64 µg/mL in assay [1] (YEM 53, 24 hrs, 80% inhibition); above 64 µg/mL in assay [3]; above 64 µg/mL in assay [4]; above 64 µg/mL in [5]; above 64 µg/mL in [6]; above 64 µg/mL in assay [7]. Besides, the MIC of compound in the absence of fluconazole (−) was above 64 µg/mL in assay [8] (YEM 51, 24 hrs, 80% inhibition) and above 64 µg/mL in assay [9] (YEM 30, 24 hrs, 80% inhibition). Also, the “FEPI MIC with fluconazole, 60% Inh” value in assay [2] is above 64. Moreover, the “FEPI MIC with fluconazole, 80% Inh” value in [2] is above 64. The “FEPI MIC with itraconazole, 60% Inh” value in [2] (60% inhibition) is reported as above 64. In [2] (80% inhibition), the “FEPI MIC with itraconazole, 80% Inh” value is above 64. For the same molecule, in [2] (60% inhibition), the “FEPI MIC with ketoconazole, 60% Inh” value is on record as above 64. The “FEPI MIC with ketoconazole, 80% Inh” value in assay [2] (80% inhibition) was above 64. Besides, in assay [2] (80% inhibition), the “FEPI MIC (alone)” value was above 64.
Consider `CO[C@H]1C[C@@]2(O)/C(C=O)=C/C=C/[C@H](C)C/C(C)=C/C[C@@H]3C[C@@H](C[C@]4(CC[C@H](C)[C@@H](C)O4)O3)OC(=O)[C@@H]2C=C1C` [Compound 5, Milbemycin β1 aldehyde], for which the MIC of compound in the presence of fluconazole (+) in assay [1] (setting [10]) is above 64 µg/mL; in [3] it was “≦0.03”; in assay [4], 64 µg/mL; in [5], 64 µg/mL; in assay [6], 0.125 µg/mL; in assay [7] it was above 64 µg/mL. Moreover, the MIC of compound in the presence of fluconazole (+) is 0.25 µg/mL in assay [8] (setting [13]) and “≦0.03” in [9] (setting [14]). Further, the MIC of compound in the absence of fluconazole (−) in assay [1] (YEM 53, 24 hrs, 80% inhibition) is above 64 µg/mL; in assay [3], above 64 µg/mL; in assay [4] it was above 64 µg/mL; in [5], above 64 µg/mL; in assay [6], above 64 µg/mL; in assay [7], above 64 µg/mL. In addition, the MIC of compound in the absence of fluconazole (−) is above 64 µg/mL in assay [8] (YEM 51, 24 hrs, 80% inhibition) and above 64 µg/mL in assay [9] (YEM 30, 24 hrs, 80% inhibition). Also, the “FEPI MIC with fluconazole, 60% Inh” value in [2] (setting [11]) was 4. Further, in assay [2] (setting [12]), the “FEPI MIC with fluconazole, 80% Inh” value came to 64. For the same molecule, the “FEPI MIC with itraconazole, 60% Inh” value in [2] (60% inhibition) is listed as 0.5. For the same molecule, the “FEPI MIC with itraconazole, 80% Inh” value in assay [2] (80% inhibition) is recorded as 32. Moreover, the “FEPI MIC with ketoconazole, 60% Inh” value in [2] (60% inhibition) is “≦0.063”. In addition, the “FEPI MIC with ketoconazole, 80% Inh” value in [2] (80% inhibition) was “≦0.063”. Also, the “FEPI MIC (alone)” value in assay [2] (80% inhibition) amounted to 64.
For the molecule `CCCCC(C)C(=O)OC1C(C)C(CC)OC2(CC3CC(CC=C(C)CC(C)C=CC=C4COC5C(O)C(C)=CC(C(=O)O3)C45O)O2)C1O` (stereo not drawn) [Compound 10, Milbemycin α7], the MIC of compound in the presence of fluconazole (+) is above 64 µg/mL in [1] (setting [10]); “≦0.03” in assay [3]; above 64 µg/mL in assay [4]; above 64 µg/mL in assay [5]; 1 µg/mL in assay [6]; above 64 µg/mL in assay [7]. Moreover, the MIC of compound in the presence of fluconazole (+) is 2 µg/mL in [8] (setting [13]) and “≦0.03” in assay [9] (setting [14]). Besides, the MIC of compound in the absence of fluconazole (−) was above 64 µg/mL in assay [1] (YEM 53, 24 hrs, 80% inhibition); above 64 µg/mL in assay [3]; above 64 µg/mL in assay [4]; above 64 µg/mL in assay [5]; above 64 µg/mL in [6]; above 64 µg/mL in [7]. In addition, the MIC of compound in the absence of fluconazole (−) in [8] (YEM 51, 24 hrs, 80% inhibition) was above 64 µg/mL; in assay [9] (YEM 30, 24 hrs, 80% inhibition) it was above 64 µg/mL. Besides, the “FEPI MIC with fluconazole, 60% Inh” value in assay [2] (setting [11]) came to 0.25. Also, the “FEPI MIC with fluconazole, 80% Inh” value in assay [2] (setting [12]) is reported as 4. For the same molecule, the “FEPI MIC with itraconazole, 60% Inh” value in assay [2] (60% inhibition) stood at 1. Moreover, the “FEPI MIC with itraconazole, 80% Inh” value in assay [2] (80% inhibition) was determined as 8. The “FEPI MIC with ketoconazole, 60% Inh” value in assay [2] (60% inhibition) was 0.25. In assay [2] (80% inhibition), the “FEPI MIC with ketoconazole, 80% Inh” value is 0.25. Moreover, the “FEPI MIC (alone)” value in [2] (80% inhibition) was above 64.
